How the values were obtained:
Format in all cases: cell-based
TSWV [1] = assay: TSWV clearance from regenerated N. benthamiana plants by antiviral treatment during tissue culture (RT-PCR with N-specific primers); conditions: 40 mg/L in medium; explants infected with TSWV-Cas12a-crRNA targeting crPDS1
[2] = system: PDS gene crPDS1 target site; assay: Mutation genotypes at the crPDS1 target in regenerated N. benthamiana plants after antiviral treatment (HTS); conditions: for proportion of M0 plants with mutations at the target site: ribavirin 40 mg/L, favipiravir 40 mg/L, remdesivir 1.2 mg/L
From the text: Plant regeneration through culturing the leaf tissues infected with the TSWV vectors are usually ineffective in eliminating the virus. The embodiment investigated the effect of antiviral treatment during plant regeneration on virus clearance using leaf tissues infected with the TSWV-Cas12a-crRNA vector targeting the N. benthamiana crPDS1 site. […] After 35 days of culturing, explants together with induced callus were transferred to an induction medium without antiviral agents until day 55, and then the regenerated seedlings were transferred to a rooting medium. Three independent biological replicates were included in each group, and 30 plants were randomly selected in each biological replicate of each group for subsequent analysis. Total RNA was extracted from M0 regenerated seedlings, and RT-PCR was conducted using the TSWV N specific primers N/F ([…]; SEQ ID NO: 131) and N/R ([…]; SEQ ID NO: 132) to examine the virus clearance rate. The primers Nb/actin/F ([…]; SEQ ID NO: 133) and Nb/actin/R ([…]; SEQ ID NO: 134) for amplification of the NbActin cDNA served as an internal control. […] In contrast, the mock treatment had only 4.4% of virus-free regenerated plants.
To further evaluate the effect of drug treatment on the efficiency of gene editing in the regenerated plants, DNA sequences containing the target loci were PCR amplified using specific primers (SEQ ID NO: 70 and 71), and the resulting amplicons were high-throughput sequenced. The mutation type of each plant was analyzed, and the editing efficiency of each group was calculated. We used the following definitions to call the putative genotype: wild-type (WT) with editing efficiency (indels %) of 0-10.0%; chimeric (Chi) with 10%<indels %≤35.0%; heterozygous (He) with 35.0%<indels %≤80.0%, i.e., one allele is edited at the target site but the other allele is wild-type; homozygous (Ho) with indels % between 80.0% and 100.0% if both alleles have the same type of editing, and biallelic (Bi) if two alleles produced two different types of editing.

TSWV [3] = assay: TSWV clearance from regenerated tobacco plants by antiviral treatment
From the text: (§1) This embodiment further investigates the impact of antiviral drug treatment on virus clearance and mutant plant recovery using tobacco leaf tissues infected with the TSWV vectors for tissue culture and regeneration. We used the recombinant TSWV-Cas12a-crRNA vector described in Example 24 as an example, which targets the crPDS1 target sites of both PDS genes in tobacco. The systemic leaves infected with this virus vector were used as explants for tissue culture and plant regeneration, following the same experimental protocol as described in Example 24.
(§2) The distribution of mutant genotypes in the regenerated plants from each drug treatment group was further analyzed.

[4] = system: PDS genes crPDS1 target sites; assay: Target mutations in regenerated tobacco plants after antiviral treatment (HTS)
From the text: as §1, §2

| SMILES | TSWV clearance rate (regenerated plants free of virus) (TSWV [1]) [%] | plants with tetra-allelic mutations at the crPDS1 target site ([2]; 40 mg/L ribavirin in medium) [%] | proportion of Chi types compared to the mock group ([2]; M0 plants, PDSa and PDSb) | proportion of Ho/Bi types compared to the mock group ([2]; M0 plants, PDSa and PDSb) | proportion of M0 plants with mutations at the target site ([2]; PDSa and PDSb) | presence of viral vectors in the regenerated plants (TSWV [3]) | proportion of mutation types in regenerated plants [4] | percentage of regenerated plants carrying target mutations ([4]; HTS) | total editing efficiency compared to the mock group ([2]; M0 plants) |
| --- | --- | --- | --- | --- | --- | --- | --- | --- | --- |
| NC(=O)c1ncn([C@@H]2O[C@H](CO)[C@@H](O)[C@H]2O)n1 [ribavirin] | 100 | 28.9 | decreased | increased in both homoeologs | highest proportion of plants with mutations | effectively cleared the virus from all of the regenerated plants | increased the proportion of various mutation types | significantly higher than that in the control treatment and other drug treatment groups |  |
| NC(=O)c1nc(F)c[nH]c1=O [favipiravir] |  |  |  | significantly higher than that of the mock group | lowest mutation rates |  |  |  | lower than that of the mock group |

Reference: US20240218385A1, “NEGATIVE-STRAND RNA VIRAL VECTOR AND PLANT GENOME EDITING METHOD WITHOUT TRANSFORMATION” (ZHEJIANG UNIVERSITY, priority 2021, published 2024)
